Assay results: patent USRE45173E1, “Inhibitors of CYP 17” (Novartis AG, priority 2009, dated 2014)

Target: recombinant human CYP17 enzyme (Homo sapiens (Human), UniProt P05093)
Test: Cytochrome P450, 17-20 lyase (CYP17-lyase) assay, tritiated acetic acid release from 17-α-hydroxy pregnenolone [21-3H]
Type: biochemical
Conditions: human CYP17, substrate 0.25 μM; read-out: Lyase IC 50 nM Human/Rat (Human)
How it was run: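 Membranes of cells expressing human CYP17 incubated 90 min at room temperature with [21-3H]17α-hydroxypregnenolone and 4.2 mM NADPH in 50 mM phosphate pH 7.5. Released tritiated acetic acid separated from steroids by charcoal and counted by scintillation; IC50 from sigmoidal fit of % inhibition.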

Chain of recombinant human CYP17 enzyme (P05093 whole entry): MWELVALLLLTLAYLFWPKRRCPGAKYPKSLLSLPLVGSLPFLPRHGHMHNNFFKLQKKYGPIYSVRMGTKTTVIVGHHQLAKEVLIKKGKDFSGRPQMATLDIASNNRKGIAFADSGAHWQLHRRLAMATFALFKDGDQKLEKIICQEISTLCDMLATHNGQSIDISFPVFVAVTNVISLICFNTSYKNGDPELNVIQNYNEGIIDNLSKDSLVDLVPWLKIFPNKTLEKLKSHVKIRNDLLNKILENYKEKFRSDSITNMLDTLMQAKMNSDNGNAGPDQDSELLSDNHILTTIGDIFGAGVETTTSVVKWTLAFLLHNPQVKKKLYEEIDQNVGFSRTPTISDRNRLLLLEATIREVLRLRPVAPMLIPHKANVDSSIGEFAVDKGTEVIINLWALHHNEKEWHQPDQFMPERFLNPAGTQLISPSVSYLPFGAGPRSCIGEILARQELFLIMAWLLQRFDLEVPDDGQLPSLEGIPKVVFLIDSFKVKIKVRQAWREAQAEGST

IC50 [nM]	Structure (SMILES)
34	O=C1N(c2cccnc2)CCN1c1ccc2ccccc2c1 [Example 1A, 1-Naphthalen-2-yl-3-pyridin-3-yl-imidazolidin-2-one]
77	O=C1N(c2cccnc2)CCN1c1ccc2ncsc2c1 [Example 4A, 1-Benzothiazol-6-yl-3-pyridin-3-yl-imidazolidin-2-one]
17	Cc1ccncc1N1CCN(c2ccc3ccccc3c2)C1=O [Example 14A, 1-(4-Methyl-pyridin-3-yl)-3-naphthalen-2-yl-imidazolidin-2-one]
6	Cc1ccncc1N1CCN(c2ccc3ncsc3c2)C1=O [Example 16A, 1-Benzothiazol-6-yl-3-(4-methyl-pyridin-3-yl)-imidazolidin-2-one]
76	Cc1ccncc1N1CCN(c2ccc(F)cc2)C1=O [Example 18A, 1-(4-Fluoro-phenyl)-3-(4-methyl-pyridin-3-yl)-imidazolidin-2-one]
72	Cc1ccncc1N1CCN(c2cnc3ccccc3c2)C1=O [Example 24A, 1-(4-Methyl-pyridin-3-yl)-3-quinolin-3-yl-imidazolidin-2-one]
15	Cc1ccncc1N1CCN(c2cc3ccccc3s2)C1=O [Example 26A, 1-Benzo[b]thiophen-2-yl-3-(4-methyl-pyridin-3-yl)-imidazolidin-2-one]
24	Cc1ccncc1N1CCN(c2ccc3sccc3c2)C1=O [Example 27A, 1-Benzo[b]thiophen-5-yl-3-(4-methyl-pyridin-3-yl)-imidazolidin-2-one]
4	Cc1ccncc1N1CCN(c2ccc3[nH]ncc3c2)C1=O [Example 28A, 1-(1H-Indazol-5-yl)-3-(4-methyl-pyridin-3-yl)-imidazolidin-2-one]
3	Cc1ccncc1N1CCN(c2ccc3occ(C)c3c2)C1=O [Example 29A, 1-(3-Methyl-benzofuran-5-yl)-3-(4-methyl-pyridin-3-yl)-imidazolidin-2-one]
108	Cc1ccncc1N1CCN(c2ccsc2)C1=O [Example 31A, 1-(4-Methyl-pyridin-3-yl)-3-thiophen-3-yl-imidazolidin-2-one]
10	Cc1ccncc1N1CCN(c2ccc(Cl)s2)C1=O [Example 41A, 1-(5-Chloro-thiophen-2-yl)-3-(4-methyl-pyridin-3-yl)-imidazolidin-2-one]
96	Cc1ccncc1N1CCN(c2ccc3ncccc3c2)C1=O [Example 52A, 1-(4-Methyl-pyridin-3-yl)-3-quinolin-6-yl-imidazolidin-2-one]
9	Cc1cccc(N2CCN(c3cnccc3C)C2=O)c1 [Example 55A, 1-(4-Methyl-pyridin-3-yl)-3-m-tolyl-imidazolidin-2-one]
6.5	Cc1ccncc1N1CCN(c2cccc(C(F)(F)F)c2)C1=O [Example 70A, 1-(4-Methyl-pyridin-3-yl)-3-(3-trifluoromethyl-phenyl)-imidazolidin-2-One]
9.4	COc1cc(N2CCN(c3cnccc3C)C2=O)ccn1 [Example 72A, 1-(2-Methoxy-pyridin-4-yl)-3-(4-methyl-pyridin-3-yl)-imidazolidin-2-one]
7.5	Cc1ccncc1N1CCN(c2ccc3c(C)n[nH]c3c2)C1=O [Example 102A, 1-(3-Methyl-1H-indazol-6-yl)-3-(4-methyl-pyridin-3-yl)-imidazolidin-2-one]
23	COc1ccncc1N1CCN(c2ccc3ncsc3c2)C1=O [Example 124A, 1-Benzothiazol-6-yl-3-(4-methoxy-pyridin-3-yl)-imidazolidin-2-one]

Target: rat CYP17 lyase (Rattus norvegicus (Rat), UniProt P11715)
Sequence (P11715 whole entry): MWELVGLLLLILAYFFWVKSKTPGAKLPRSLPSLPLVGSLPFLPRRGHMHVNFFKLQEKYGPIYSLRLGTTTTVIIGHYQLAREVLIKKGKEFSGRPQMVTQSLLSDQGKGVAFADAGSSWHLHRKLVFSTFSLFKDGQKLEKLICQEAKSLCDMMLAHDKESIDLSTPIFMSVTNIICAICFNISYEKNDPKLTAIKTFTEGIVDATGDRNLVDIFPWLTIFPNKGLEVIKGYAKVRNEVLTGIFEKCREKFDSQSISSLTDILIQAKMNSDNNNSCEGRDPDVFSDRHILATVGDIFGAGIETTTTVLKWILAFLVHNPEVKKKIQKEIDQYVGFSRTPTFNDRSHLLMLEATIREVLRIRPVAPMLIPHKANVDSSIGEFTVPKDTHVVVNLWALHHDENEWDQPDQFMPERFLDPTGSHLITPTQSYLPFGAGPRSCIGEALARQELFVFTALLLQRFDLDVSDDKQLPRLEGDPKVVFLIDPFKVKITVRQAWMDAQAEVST
Test: rat CYP 17 Lyase model, rat testes microsomes as the source
Type: biochemical
Conditions: 100 nM compound; read-out: rCYP17 Lyase % Inh @ 100 nM
Method: For routine screening, the assay was set up with 16 μg of enzyme in 50 μL reaction volume. 17α-hydroxy pregnenolone [21-3H] was added to a final concentration of 0.25 μM. NADPH is used at a final concentration of 4.2 mM. Total reaction volume was made up to 50 μL with 50 mM Phosphate buffer pH 7.5. The reaction mixture was incubated at room temperature for 90 minutes with gentle shaking. The reaction was stopped by the addition of 100 μL of buffer. 500 μL of 5% freshly prepared activated charcoal was added to the solution and mixed well by vortexing. The samples were centrifuged at 17568×g for 5 minutes. (14000 rpm). The supernatant was carefully transferred to fresh tube and 1.3 mL of scintillation fluid was added, mixed by vortexing.
The radioactivity was measured in a 1450 MicroBeta TriLux™ scintillation counter from Wallac-Perkin Elmer®, USA. The measurements were carried out in 2.0 mL Eppendorforf™ tubes. Each tube was counted for 1 minute. The amount of tritiated acetic acid released is proportional to the lyase activity. Percent lyase activity in presence of inhibitor was calculated using the formula given below.
[formula] • Sample: Enzyme reaction in presence of inhibitor. • Positive control: Enzyme reaction without inhibitor but containing DMSO at 1% final concentration. • Blank-Contains all reagents except enzyme. % Inhibition=100%−% Lyase activity
For IC50 determination, the % inhibition was plotted as a function of inhibitor concentration. The data was fitted to sigmoidal equation using Graphpad Prism® software IV to generate IC50 values.
For the rat CYP 17 Lyase Model:
The same procedure described above was used but using rat testes microsomes as the source and with a substrate concentration of 0.5 μM.

inhibition at 0.1 µM [%]	Structure (SMILES)
84	O=C1N(c2cccnc2)CCN1c1ccc2ccccc2c1 [Example 1A, 1-Naphthalen-2-yl-3-pyridin-3-yl-imidazolidin-2-one]
59	O=C1N(c2cccnc2)CCN1c1ccc2ncsc2c1 [Example 4A, 1-Benzothiazol-6-yl-3-pyridin-3-yl-imidazolidin-2-one]
102	Cc1ccncc1N1CCN(c2ccc3ccccc3c2)C1=O [Example 14A, 1-(4-Methyl-pyridin-3-yl)-3-naphthalen-2-yl-imidazolidin-2-one]
94	Cc1ccncc1N1CCN(c2ccc3ncsc3c2)C1=O [Example 16A, 1-Benzothiazol-6-yl-3-(4-methyl-pyridin-3-yl)-imidazolidin-2-one]
88	Cc1ccncc1N1CCN(c2ccc(F)cc2)C1=O [Example 18A, 1-(4-Fluoro-phenyl)-3-(4-methyl-pyridin-3-yl)-imidazolidin-2-one]
98	Cc1ccncc1N1CCN(c2cnc3ccccc3c2)C1=O [Example 24A, 1-(4-Methyl-pyridin-3-yl)-3-quinolin-3-yl-imidazolidin-2-one]
100	Cc1ccncc1N1CCN(c2cc3ccccc3s2)C1=O [Example 26A, 1-Benzo[b]thiophen-2-yl-3-(4-methyl-pyridin-3-yl)-imidazolidin-2-one]
101	Cc1ccncc1N1CCN(c2ccc3sccc3c2)C1=O [Example 27A, 1-Benzo[b]thiophen-5-yl-3-(4-methyl-pyridin-3-yl)-imidazolidin-2-one]
61	Cc1ccncc1N1CCN(c2ccc3[nH]ncc3c2)C1=O [Example 28A, 1-(1H-Indazol-5-yl)-3-(4-methyl-pyridin-3-yl)-imidazolidin-2-one]
98	Cc1ccncc1N1CCN(c2ccc3occ(C)c3c2)C1=O [Example 29A, 1-(3-Methyl-benzofuran-5-yl)-3-(4-methyl-pyridin-3-yl)-imidazolidin-2-one]
76	Cc1ccncc1N1CCN(c2ccc(F)nc2)C1=O [Example 30A, 1-(6-Fluoro-pyridin-3-yl)-3-(4-methyl-pyridin-3-yl)-imidazolidin-2-one]
74	Cc1ccncc1N1CCN(c2ccsc2)C1=O [Example 31A, 1-(4-Methyl-pyridin-3-yl)-3-thiophen-3-yl-imidazolidin-2-one]
73	COc1cncc(N2CCN(c3cnccc3C)C2=O)c1 [Example 32A, 1-(5-Methoxy-pyridin-3-yl)-3-(4-methyl-pyridin-3-yl)-imidazolidin-2-one]
97	Cc1ccncc1N1CCN(c2ccc3ncccc3c2)C1=O [Example 52A, 1-(4-Methyl-pyridin-3-yl)-3-quinolin-6-yl-imidazolidin-2-one]
3.6	O=C1N(c2cncc(C(F)(F)F)c2)CCN1c1ccc2ccccc2c1 [Example 79A, 1-Naphthalen-2-yl-3-(5-trifluoromethyl-pyridin-3-yl)-imidazolidin-2-one]
57	O=C1N(c2cncc(Cl)c2)CCN1c1ccc2ccccc2c1 [Example 80A]
82	O=C1N(c2cncc(F)c2)CCN1c1ccc2ccccc2c1 [Example 81A, 1-(5-Fluoro-pyridin-3-yl)-3-naphthalen-2-yl-imidazolidin-2-one]
8	CC(O)c1ccncc1N1CCN(c2ccc3ncsc3c2)C1=O (stereo not drawn) [Example 195A, 1-Benzothiazol-6-yl-3-[4-(1-hydroxyethyl)-pyridin-3-yl]-imidazolidin-2-one]

Same assay, conditions: rat testes microsomes, substrate 0.5 μM; read-out: Lyase IC 50 nM Human/Rat (Rat)

IC50 [nM]	Structure (SMILES)
35	O=C1N(c2cccnc2)CCN1c1ccc2ccccc2c1 [Example 1A, 1-Naphthalen-2-yl-3-pyridin-3-yl-imidazolidin-2-one]
2	Cc1ccncc1N1CCN(c2ccc3ccccc3c2)C1=O [Example 14A, 1-(4-Methyl-pyridin-3-yl)-3-naphthalen-2-yl-imidazolidin-2-one]
5	Cc1ccncc1N1CCN(c2ccc3ncsc3c2)C1=O [Example 16A, 1-Benzothiazol-6-yl-3-(4-methyl-pyridin-3-yl)-imidazolidin-2-one]
12	Cc1ccncc1N1CCN(c2ccc(F)cc2)C1=O [Example 18A, 1-(4-Fluoro-phenyl)-3-(4-methyl-pyridin-3-yl)-imidazolidin-2-one]
52	Cc1ccncc1N1CCN(c2ccc3[nH]ncc3c2)C1=O [Example 28A, 1-(1H-Indazol-5-yl)-3-(4-methyl-pyridin-3-yl)-imidazolidin-2-one]
3	Cc1ccncc1N1CCN(c2ccc(Cl)s2)C1=O [Example 41A, 1-(5-Chloro-thiophen-2-yl)-3-(4-methyl-pyridin-3-yl)-imidazolidin-2-one]
5	Cc1ccncc1N1CCN(c2ccc3ncccc3c2)C1=O [Example 52A, 1-(4-Methyl-pyridin-3-yl)-3-quinolin-6-yl-imidazolidin-2-one]
7	Cc1cccc(N2CCN(c3cnccc3C)C2=O)c1 [Example 55A, 1-(4-Methyl-pyridin-3-yl)-3-m-tolyl-imidazolidin-2-one]
2	Cc1ccncc1N1CCN(c2cccc(C(F)(F)F)c2)C1=O [Example 70A, 1-(4-Methyl-pyridin-3-yl)-3-(3-trifluoromethyl-phenyl)-imidazolidin-2-One]
10	COc1cc(N2CCN(c3cnccc3C)C2=O)ccn1 [Example 72A, 1-(2-Methoxy-pyridin-4-yl)-3-(4-methyl-pyridin-3-yl)-imidazolidin-2-one]
5	Cc1ccncc1N1CCN(c2ccc3c(C)n[nH]c3c2)C1=O [Example 102A, 1-(3-Methyl-1H-indazol-6-yl)-3-(4-methyl-pyridin-3-yl)-imidazolidin-2-one]
12	COc1ccncc1N1CCN(c2ccc3ncsc3c2)C1=O [Example 124A, 1-Benzothiazol-6-yl-3-(4-methoxy-pyridin-3-yl)-imidazolidin-2-one]
